Reference: publication PMC9518264, “Design and synthesis of novel quinazolinone-based derivatives as EGFR inhibitors with antitumor activity” (Journal of Enzyme Inhibition and Medicinal Chemistry, 2022)

Key:
CCRF-CEM = assay: cells; assay type: cell-based; conditions: Homo sapiens, 10 μM, read-out: growth inhibition % (GI%)
K-562 = assay: cells; assay type: cell-based; conditions: Homo sapiens, K562; K-562; 10 μM; read-out: growth inhibition % (GI%)
RPMI-8226 = assay: cells; assay type: cell-based; conditions: Homo sapiens; RPMI-8226; 10 μM; read-out: growth inhibition % (GI%)
SR = assay: cells; assay type: cell-based; conditions: Homo sapiens, 10 μM, read-out: growth inhibition % (GI%)
EKVX = assay: cells; assay type: cell-based; conditions: Homo sapiens, 10 μM, read-out: growth inhibition % (GI%)
HOP-62 = assay: cells; assay type: cell-based; conditions: Homo sapiens; HOP-62; 10 μM; read-out: growth inhibition % (GI%)
HOP-92 = assay: cells; assay type: cell-based; conditions: Homo sapiens; HOP-92; 10 μM; read-out: growth inhibition % (GI%)
NCI-H226 = assay: cells; assay type: cell-based; conditions: Homo sapiens; NCI-H226; 10 μM; read-out: growth inhibition % (GI%)
NCI-H322M = assay: cells; assay type: cell-based; conditions: Homo sapiens, 10 μM, read-out: growth inhibition % (GI%)
NCI-H460 = assay: cells; assay type: cell-based; conditions: Homo sapiens; NCI-H460; 10 μM; read-out: growth inhibition % (GI%)
NCI-H522 = assay: cells; assay type: cell-based; conditions: Homo sapiens; NCI-H522; 10 μM; read-out: growth inhibition % (GI%)
COLO-205 = assay: cells; assay type: cell-based; conditions: Homo sapiens; COLO-205; 10 μM; read-out: growth inhibition % (GI%)
HCC-2998 = assay: cells; assay type: cell-based; conditions: Homo sapiens; HCC-2998; 10 μM; read-out: growth inhibition % (GI%)
HCT-116 = assay: cells; assay type: cell-based; conditions: Homo sapiens; HCT-116; 10 μM; read-out: growth inhibition % (GI%)
HT29 = assay: cells; assay type: cell-based; conditions: Homo sapiens, HT-29; HT29; 10 μM; read-out: growth inhibition % (GI%)
SW-620 = assay: cells; assay type: cell-based; conditions: Homo sapiens; SW-620; 10 μM; read-out: growth inhibition % (GI%)
SF-268 = assay: cells; assay type: cell-based; conditions: Homo sapiens; SF-268; 10 μM; read-out: growth inhibition % (GI%)
SF-539 = assay: cells; assay type: cell-based; conditions: Homo sapiens; SF-539; 10 μM; read-out: growth inhibition % (GI%)
SNB-19 = assay: cells; assay type: cell-based; conditions: Homo sapiens; SNB-19; 10 μM; read-out: growth inhibition % (GI%)
SNB-75 = assay: cells; assay type: cell-based; conditions: Homo sapiens; SNB-75; 10 μM; read-out: growth inhibition % (GI%)
LOX IMIV = assay: cells; assay type: cell-based; conditions: Homo sapiens, 60 cell; LOX IMIV; 10 μM; read-out: growth inhibition % (GI%)
MDA-MB-435 = assay: cells; assay type: cell-based; conditions: Homo sapiens; MDA-MB-435; 10 μM; read-out: growth inhibition % (GI%)
SK-MEL-2 = assay: cells; assay type: cell-based; conditions: Homo sapiens; SK-MEL-2; 10 μM; read-out: growth inhibition % (GI%)
SK-MEL-28 = assay: cells; assay type: cell-based; conditions: Homo sapiens; SK-MEL-28; 10 μM; read-out: growth inhibition % (GI%)
SK-MEL-5 = assay: cells; assay type: cell-based; conditions: Homo sapiens; SK-MEL-5; 10 μM; read-out: growth inhibition % (GI%)
UACC-257 = assay: cells; assay type: cell-based; conditions: Homo sapiens; UACC-257; 10 μM; read-out: growth inhibition % (GI%)
UACC-62 = assay: cells; assay type: cell-based; conditions: Homo sapiens; UACC-62; 10 μM; read-out: growth inhibition % (GI%)
IGROV1 = assay: cells; assay type: cell-based; conditions: Homo sapiens, IGROV-1; IGROV1; 10 μM; read-out: growth inhibition % (GI%)
OVCAR-4 = assay: cells; assay type: cell-based; conditions: Homo sapiens; OVCAR-4; 10 μM; read-out: growth inhibition % (GI%)
OVCAR-5 = assay: cells; assay type: cell-based; conditions: Homo sapiens; OVCAR-5; 10 μM; read-out: growth inhibition % (GI%)
OVCAR-8 = assay: cells; assay type: cell-based; conditions: Homo sapiens; OVCAR-8; 10 μM; read-out: growth inhibition % (GI%)
NCI/ADR-RES = assay: cells; assay type: cell-based; conditions: Homo sapiens, 10 μM, read-out: growth inhibition % (GI%)
SK-OV-3 = assay: cells; assay type: cell-based; conditions: Homo sapiens; SK-OV-3; 10 μM; read-out: growth inhibition % (GI%)
786-0 = assay: cells; assay type: cell-based; conditions: Homo sapiens; 786-0; 10 μM; read-out: growth inhibition % (GI%)
A498 = assay: cells; assay type: cell-based; conditions: Homo sapiens; A498; 10 μM; read-out: growth inhibition % (GI%)
ACHN = assay: cells; assay type: cell-based; conditions: Homo sapiens, 10 μM, read-out: growth inhibition % (GI%)
SN12C = assay: cells; assay type: cell-based; conditions: Homo sapiens, 10 μM, read-out: growth inhibition % (GI%)
TK-10 = assay: cells; assay type: cell-based; conditions: Homo sapiens; TK-10; 10 μM; read-out: growth inhibition % (GI%)
UO-31 = assay: cells; assay type: cell-based; conditions: Homo sapiens; UO-31; 10 μM; read-out: growth inhibition % (GI%)
PC-3 = assay: cells; assay type: cell-based; conditions: Homo sapiens; PC-3; 10 μM; read-out: growth inhibition % (GI%)
MDA-MB-231/ATCC = assay: NCI 60 cell line antiproliferative screening (SRB), Breast cancer; assay type: cell-based; conditions: Homo sapiens, MDA-MB-231, read-out: growth inhibition % (GI%)
BT-549 = assay: cells; assay type: cell-based; conditions: Homo sapiens; BT-549; 10 μM; read-out: growth inhibition % (GI%)
T-47D = assay: cells; assay type: cell-based; conditions: Homo sapiens, T47D; T-47D; 10 μM; read-out: growth inhibition % (GI%)
[1] = system: panel of 60 tumour cell lines; assay: NCI 60 cell line antiproliferative screening (SRB), whole panel or subpanels (means, ranges, words); assay type: cell-based, human; conditions: for antiproliferative activity against all tested cell lines: 10 μM single dose; for inhibition at 10 µM: Homo sapiens, 60 cell, read-out: Mean growth inhibition % (mean GI%)
MDA-MB-468 = assay: NCI 60 cell line antiproliferative screening (SRB), Breast cancer; conditions: Homo sapiens, MDA-MB-468, read-out: growth inhibition % (GI%)
OVCAR-3 = assay: NCI 60 cell line antiproliferative screening (SRB), Ovarian cancer; conditions: Homo sapiens, OVCAR-3, read-out: growth inhibition % (GI%)
[2] = mean over the cell line panel, 10 μM

CN1CCN(c2ccc(C=NNC(=O)CSc3nc4ccccc4c(=O)n3-c3ccccc3)cc2)CC1 [6i, N'-(4–(4-methylpiperazin-1-yl)benzylidene)-2-((4-oxo-3-phenyl-3,4-dihydroquinazolin-2-yl)thio) acetohydrazide]
inhibition at 10 µM (CCRF-CEM): < 15% | inhibition at 10 µM (K-562): < 15% | inhibition at 10 µM (RPMI-8226): < 15% | inhibition at 10 µM (SR): < 15% | inhibition at 10 µM (EKVX): < 15% | inhibition at 10 µM (HOP-62): < 15% | inhibition at 10 µM (HOP-92): < 15% | inhibition at 10 µM (NCI-H226): < 15% | inhibition at 10 µM (NCI-H322M): < 15% | inhibition at 10 µM (NCI-H460): < 15% | inhibition at 10 µM (NCI-H522): < 15% | inhibition at 10 µM (COLO-205): < 15% | inhibition at 10 µM (HCC-2998): < 15% | inhibition at 10 µM (HCT-116): < 15% | inhibition at 10 µM (HT29): < 15% | inhibition at 10 µM (SW-620): < 15% | inhibition at 10 µM (SF-268): < 15% | inhibition at 10 µM (SF-539): < 15% | inhibition at 10 µM (SNB-19): < 15% | inhibition at 10 µM (SNB-75): < 15% | inhibition at 10 µM (LOX IMIV): < 15% | inhibition at 10 µM (MDA-MB-435): < 15% | inhibition at 10 µM (SK-MEL-2): < 15% | inhibition at 10 µM (SK-MEL-28): < 15% | inhibition at 10 µM (SK-MEL-5): < 15% | inhibition at 10 µM (UACC-257): < 15% | inhibition at 10 µM (UACC-62): < 15% | inhibition at 10 µM (IGROV1): < 15% | inhibition at 10 µM (OVCAR-4): < 15% | inhibition at 10 µM (OVCAR-5): < 15% | inhibition at 10 µM (OVCAR-8): < 15% | inhibition at 10 µM (NCI/ADR-RES): < 15% | inhibition at 10 µM (SK-OV-3): < 15% | inhibition at 10 µM (786-0): < 15% | inhibition at 10 µM (A498): 10.2% | inhibition at 10 µM (ACHN): < 15% | inhibition at 10 µM (SN12C): < 15% | inhibition at 10 µM (TK-10): < 15% | inhibition at 10 µM (UO-31): < 15% | inhibition at 10 µM (PC-3): < 15% | inhibition at 10 µM (MDA-MB-231/ATCC): < 15% | inhibition at 10 µM (BT-549): < 15% | inhibition at 10 µM (T-47D): < 15% | antiproliferative activity against all tested cell lines [1]: did not show activity | inhibition at 10 µM [1, 2]: < 0% | inhibition at 10 µM (MDA-MB-468): < 15% | inhibition at 10 µM (OVCAR-3): < 15%

COc1ccc(Oc2ccc(C=NNC(=O)CSc3nc4ccccc4c(=O)n3-c3ccccc3)cc2)cc1 [6c, N'-(4–(4-methoxyphenoxy)benzylidene)-2-((4-oxo-3-phenyl-3,4-dihydroquinazolin-2-yl)thio)acetohydrazide]
inhibition at 10 µM (CCRF-CEM): < 15% | inhibition at 10 µM (K-562): < 15% | inhibition at 10 µM (RPMI-8226): < 15% | inhibition at 10 µM (SR): < 15% | inhibition at 10 µM (EKVX): < 15% | inhibition at 10 µM (HOP-62): < 15% | inhibition at 10 µM (HOP-92): < 15% | inhibition at 10 µM (NCI-H226): < 15% | inhibition at 10 µM (NCI-H322M): < 15% | inhibition at 10 µM (NCI-H460): < 15% | inhibition at 10 µM (NCI-H522): < 15% | inhibition at 10 µM (COLO-205): < 15% | inhibition at 10 µM (HCC-2998): < 15% | inhibition at 10 µM (HCT-116): < 15% | inhibition at 10 µM (HT29): < 15% | inhibition at 10 µM (SW-620): < 15% | inhibition at 10 µM (SF-268): < 15% | inhibition at 10 µM (SF-539): < 15% | inhibition at 10 µM (SNB-19): < 15% | inhibition at 10 µM (SNB-75): < 15% | inhibition at 10 µM (LOX IMIV): < 15% | inhibition at 10 µM (MDA-MB-435): < 15% | inhibition at 10 µM (SK-MEL-2): < 15% | inhibition at 10 µM (SK-MEL-28): < 15% | inhibition at 10 µM (SK-MEL-5): < 15% | inhibition at 10 µM (UACC-257): < 15% | inhibition at 10 µM (UACC-62): < 15% | inhibition at 10 µM (IGROV1): < 15% | inhibition at 10 µM (OVCAR-4): < 15% | inhibition at 10 µM (OVCAR-5): < 15% | inhibition at 10 µM (OVCAR-8): < 15% | inhibition at 10 µM (NCI/ADR-RES): < 15% | inhibition at 10 µM (SK-OV-3): < 15% | inhibition at 10 µM (786-0): < 15% | inhibition at 10 µM (A498): 17.2% | inhibition at 10 µM (ACHN): < 15% | inhibition at 10 µM (SN12C): < 15% | inhibition at 10 µM (TK-10): < 15% | inhibition at 10 µM (UO-31): < 15% | inhibition at 10 µM (PC-3): < 15% | inhibition at 10 µM (MDA-MB-231/ATCC): < 15% | inhibition at 10 µM (BT-549): < 15% | inhibition at 10 µM (T-47D): < 15% | antiproliferative activity against all tested cell lines [1]: no activity | inhibition at 10 µM [1, 2]: 0% | Mean growth inhibition % (mean GI%) [1, 2]: < 0% | inhibition at 10 µM (MDA-MB-468): < 15% | inhibition at 10 µM (OVCAR-3): < 15%
